From USRE47351E1 (Gilead Sciences, Inc., priority 1999, dated 2019) come the findings set out here.

By Ki is commonly meant a measure of affinity in units of concentration, obtained from inhibition or displacement.

The target in one assay is A2A receptor (Sus scrofa, UniProt K9IW67). The experiment in a line: A2A receptor affinity in pig striatum membrane prep (tritiated ZM 241385 displacement). The class given is binding. As to conditions: pig striatal membranes, displacement of tritiated ZM 241385 (2 nM), 23° C. 2 h; read-out: A2a Ki. As to the method:
Compounds of this invention were assayed to determine their affinity for the A2A receptor in a pig striatum membrane prep. […]. To the pig membranes was added 2 μL of serially diluted DMSO stock solution of the compounds of this invention at concentrations ranging from 10 nM to 100 microM or the control received 2 microL of DMSO alone, then the antagonist ZM 241385 in Tris buffer (50 mM, pH of 7.4) was added to achieve a final concentration of 2 nM. After incubation at 23° C. for 2 h, then the solutions were filtered using a membrane harvester using multiple washing of the membranes (3×). The filter disks were counted in scintillation cocktail to determine the amount of displacement of tritiated ZM displaced by the compounds of this invention. Greater than a 5 point curve was used to generate Ki's and the number of experiments is indicated in the column marked in Table 1 below.

The target in another assay is A2A adenosine receptor (Rattus norvegicus (Rat), UniProt P30543). Briefly: Reversal time of coronary vasodilation in rat isolated perfused hearts. As to conditions: bolus injection.
For a further assay, the system named is A2A AdoR. Briefly: Coronary blood flow and reversal time in open-chest anesthetized pigs.
For the next assay, the target named is A1 AdoR (Rattus norvegicus (Rat), UniProt P25099). The experiment in a line: A-V nodal conduction time (negative dromotropic effect) in rat isolated perfused hearts. As to conditions: Compound 16 0.1-30 μM, CVT510 100-400 nM. As to the method:
In experiments in which A1 adenosine receptor-mediated negative dromotropic effect was measured, atrial and ventricular surface electrograms were recorded during constant atrial pacing.
A1 adenosine receptor-mediated depression of A-V nodal conduction time (negative dromotropic effect) was measured. Atrial and ventricular surface electrograms in rats and His bundle electrogram in guinea pigs, were recorded during constant atrial pacing.
Hearts were instrumented for continuous recording of coronary perfusion pressure (A2A response) and atrioventricular (A-V) conduction time or S-H interval (A1 response).

Each structure is given as a SMILES string.

A2A receptor, sequence (K9IW67 1-409): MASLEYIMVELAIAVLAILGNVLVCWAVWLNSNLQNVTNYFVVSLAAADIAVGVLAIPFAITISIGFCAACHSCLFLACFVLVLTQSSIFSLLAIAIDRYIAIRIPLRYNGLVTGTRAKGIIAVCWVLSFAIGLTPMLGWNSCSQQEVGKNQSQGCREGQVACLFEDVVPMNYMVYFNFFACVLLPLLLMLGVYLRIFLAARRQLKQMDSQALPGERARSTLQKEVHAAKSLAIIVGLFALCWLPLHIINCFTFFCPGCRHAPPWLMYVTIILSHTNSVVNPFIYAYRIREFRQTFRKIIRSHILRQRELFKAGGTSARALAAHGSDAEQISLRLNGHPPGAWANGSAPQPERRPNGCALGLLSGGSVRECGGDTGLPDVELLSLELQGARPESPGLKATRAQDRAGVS
A2A adenosine receptor, sequence (P30543 whole entry, the tested form may be a part): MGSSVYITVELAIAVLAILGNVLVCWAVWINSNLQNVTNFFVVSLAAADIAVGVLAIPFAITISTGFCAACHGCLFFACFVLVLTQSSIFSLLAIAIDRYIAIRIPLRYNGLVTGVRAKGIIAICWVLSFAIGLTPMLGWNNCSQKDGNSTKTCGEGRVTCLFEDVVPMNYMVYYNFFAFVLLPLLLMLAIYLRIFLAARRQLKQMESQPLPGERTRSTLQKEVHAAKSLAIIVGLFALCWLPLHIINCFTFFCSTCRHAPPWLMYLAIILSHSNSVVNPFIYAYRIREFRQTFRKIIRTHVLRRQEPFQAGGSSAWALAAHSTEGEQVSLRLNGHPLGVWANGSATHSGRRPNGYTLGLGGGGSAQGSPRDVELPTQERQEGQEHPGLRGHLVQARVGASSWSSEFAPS
A1 AdoR, sequence (P25099 whole entry, the tested form may be a part): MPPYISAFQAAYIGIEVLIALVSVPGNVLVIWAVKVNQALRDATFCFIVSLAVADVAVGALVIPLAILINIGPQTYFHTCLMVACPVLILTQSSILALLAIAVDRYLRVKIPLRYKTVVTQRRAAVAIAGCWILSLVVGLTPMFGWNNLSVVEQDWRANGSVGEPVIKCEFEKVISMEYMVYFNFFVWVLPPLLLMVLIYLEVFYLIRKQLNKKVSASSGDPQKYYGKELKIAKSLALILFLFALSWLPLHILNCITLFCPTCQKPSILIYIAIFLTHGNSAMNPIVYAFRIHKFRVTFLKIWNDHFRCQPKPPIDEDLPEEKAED
Procedure for A2A AdoR: Farm pigs weighing 22-27 kg were used in this study.
Anesthesia was anesthetized with ketamine (20 mg/kg, i.m.) and sodium pentobarbital (15-18 mg/kg i.v.). Anesthesia was maintained with additional sodium pentobarbital (1.5-2 mg/kg, i.v.) every 15-20 minutes. Ventilation was maintained via a tracheotomy using a mixture of room air and 100% O2. Tidal volume, respiratory rate and fraction of O2 in inspired air were adjusted to maintain normal arterial blood gas (ABG) and pH values. […] Lactate Ringers solution was administered via an ear or femoral vein, at 5-7 ml/kg/min after a initial bolus of 300-400 ml. A catheter was inserted into the femoral artery to monitor arterial blood pressure and to obtain ABG samples.
The heart was exposed through a median stemotomy, and suspended in a pericardial cradle. Left ventricular pressure (LVP) was measured with a 5F high fidelity pressure sensitive tip transducer (Millar Instrunents, Houston, Tex.) placed in the left ventricular cavity via the apex and secured with a purse string suture. A segment of the left anterior descending coronary artery (LAD), proximal to the origin of the first diagonal branch, was dissected free of, surrounding tissue. A transit time perivascular flow probe (Transonic Systems Inc., Ithaca, N.Y.) was placed around this segment to measure coronary blood flow (CBF). Proximal to the flow probe a 24 g modified angiocatheter was inserted for intracoronary infusions. […] A2A AdoR agonists were dissolved in DMSO to produce stock concentrations of 1-5 mM, which were diluted in 0.9% saline and infused at rates of 1-1.5 ml/min. The A2A AdoR agonists were administered intracoronary. To maintain blood pressure constant, phenylephrine was administered intravenously. The phenylephrine stock solution (30 mM) was prepared in distilled water.
Prior to initiating the experiment, a 30-minute stabilization period followed the completion of all instrumentation. […] The time to recovery of 50% (t 0.5) and 90% (t0.9) of baseline CBF were recorded. Ten to 15 minutes after CBF returned to pre-drug values a second infusion with a different agonist was started. […] The effect of a maximum of three different agonists was determined in each experiment.
Procedure for A2A adenosine receptor: Adult Sprague Dawley rats of either sex weighing from 230 to 260 grams were used in this study. Animals were anesthetized by peritoneal injection of a cocktail containing ketamine and xylazine (ketamine 100 mg, xylazine 20 mg/ml). The chest was opened and the heart quickly removed. The heart was briefly rinsed in ice-cold Krebs-Henseleit solution (see below), and the aorta cannulated. […] The heart was electrically paced at a fixed cycle length of 340 ms (250 beats/min) using a bipolar electrode place on the left atrium. The electrical stimuli were generated by a Grass stimulator (Model S48, W. Warwick, R.I.) and delivered through a Stimuli Isolation Unit (Model SIU5, Astro-Med, Inc., N.Y.) as square-wave pulses of 3 msec in duration and amplitude of at least twice the threshold intensity.
Coronary perfusion pressure (CPP) was measured using a pressure transducer, connected to the aortic cannula via a T-connector positioned approximately 3 cm above the heart Coronary perfusion pressure was monitored throughout the experiment and recorded either on a chart recorder (Gould Recorder ^2200S) or a computerized recording system (PowerLab/4S, ADInstruments Pty Ltd, Australia). Only hearts with CPP ranging from 60 to 85 mmHg (in the absence of drugs) were used in the study.
Protocol A: Bolus injections. […] The times to 50% (t 0.5) and 90%/o (t 0.9) reversal of the decrease in CPP were measured. Each heart was exposed to a maximum of three vasodilators.
Protocol B: Continuous infusion. […] The times to 50% (t 0.5) and 90% (t 0.9) reversal of the decreases in CPP were measured from the time at which the infusion of the agonists was stopped. […] In addition, the duration of the injection was varied according to the volume of the boluses such as 10, 20 and 30 sec for 100, 200 and 300 μl boluses respectively. […] Boluses of various agonists were injected into the perfusion line of rat isolated perfused hearts (n=4 to 6 for each agonist) and the time to 90% (t0.9) reversal of the decrease in CPP measured.

Take `Nc1nc(-n2cc(C(=O)NC3CCCC3)cn2)nc2c1ncn2[C@@H]1O[C@H](CO)[C@@H](O)[C@H]1O` [Compound 21, (1-{9-[(4S,2R,3R,5R)-3,4-dihydroxy-5-(hydroxymethyl)oxolan-2-yl]-6-aminopurin-2-yl}pyrazol-4-yl)-N-(cyclopentyl)carboxamide]: the Ki at A2A receptor was 10 to 1000 nM.

Take `CCCCCCC#Cc1nc(N)c2ncn([C@@H]3O[C@H](CO)[C@@H](O)[C@H]3O)c2n1` [YT-146, 2-alkynyladenosine]: at A2A adenosine receptor, the “t 0.5 (min), time to 50% reversal of the increase in coronary conductance” value is reported as 17.7 ± 1.0 min and the “t 0.9 (min), time to 90% reversal of the increase in coronary conductance” value is given as 28.5 ± 4.0 min. Besides, in the assay on A2A AdoR (1 μg/kg/min), the “t 0.5 (min), time to 50% reversal of the increase in coronary blood flow” value was 17.8 ± 3.4 min and the “t 0.9 (min), time to 90% reversal of the increase in coronary blood flow” value is 32.9 ± 5.6 min. Further, the “CBF (“Fold Increase”)” value in the assay with A2A AdoR (1 μg/kg/min intracoronary infusion) stood at 3.44 ± 0.47 fold.

For the molecule `Nc1nc(-n2cc(C(=O)O)cn2)nc2c1ncn2[C@@H]1O[C@H](CO)[C@@H](O)[C@H]1O` [Compound 17, 1-{9-[(4S,2R,3R,5R)-3,4-dihydroxy-5-(hydroxymethyl)oxolan-2-yl]-6-aminopurin-2-yl}pyrazole-4-carboxylic acid], at A2A receptor, the Ki was greater than 100000 nM.

`OC[C@H]1O[C@@H](n2cnc3c(N[C@@H]4CCOC4)ncnc32)[C@H](O)[C@@H]1O` [CVT510, 2-{6-[((3R)oxolan-3-yl)amino]purin-9-yl}(4S,3R,5R)-(hydroxymethyl)oxolane-3,4-diol, reference compound]: the “Effect on A-V nodal conduction time” value at A1 AdoR was “significantly prolonged”.

Turning to `CN(C)C(=O)c1cnn(-c2nc(N)c3ncn([C@@H]4O[C@H](CO)[C@@H](O)[C@H]4O)c3n2)c1` [Compound 18, (1-{9-[(4S,2R,3R,5R)-3,4-dihydroxy-5-(hydroxymethyl)oxolan-2-yl]-6-aminopurin-2-yl}pyrazol-4-yl)-N,N-dimethylcarboxamide], the Ki on A2A receptor is 10 to 1000 nM.

As to `Nc1nc(N/N=C/C2CCCCC2)nc2c1ncn2[C@@H]1O[C@H](CO)[C@@H](O)[C@H]1O` [WRC-0470, 2-cyclohexylmethylidenehydrazino-adenosine], in the assay with A2A AdoR (1 μg/kg/min), the “t 0.5 (min), time to 50% reversal of the increase in coronary blood flow” value is listed as 9.5 ± 0.8 min and the “t 0.9 (min), time to 90% reversal of the increase in coronary blood flow” value is recorded as 22.5 ± 1.6 min.

Turning to `CCNC(=O)c1cnn(-c2nc(N)c3ncn(C4O[C@H](CO)[C@@H](O)[C@H]4O)c3n2)c1` (stereo partly drawn) [Compound 19, (1-{9-[(4S,2R,3R,5R)-3,4-dihydroxy-5-(hydrozymethyl)oxolan-2-yl]-6-aminopurin-2-yl}pyrazol-4-yl)-N-ethylcarboxamide], at A2A receptor, the Ki was 10 to 1000 nM.

As for `CCOC(=O)c1cnn(-c2nc(N)c3ncn([C@@H]4O[C@H](CO)[C@@H](O)[C@H]4O)c3n2)c1` [Compound 12, Ethyl 1-{9-[(4S,2R,3R,5R)-3,4-dihydroxy-5-(hydroxymethyl)oxolan-2-yl]-6-aminopurin-2-yl}pyrazole-4-carboxylate], at A2A adenosine receptor, the “t 0.5 (min), time to 50% reversal of the increase in coronary conductance” value amounted to 14.83 ± 2.1 min and the “t 0.9 (min), time to 90% reversal of the increase in coronary conductance” value is given as 15.0 ± 0.8 min. Also, the Ki on A2A receptor lay in the range of 10 to 1000 nM.

With `CCNC(=O)[C@H]1O[C@@H](n2cnc3c(N)nc(NCCc4ccc(CCC(=O)O)cc4)nc32)[C@H](O)[C@@H]1O` [CGS21680], in the assay with A2A AdoR (2 μg/kg/min), the “t 0.5 (min), time to 50% reversal of the increase in coronary blood flow” value came out at 9.7 ± 0.8 min and the “t 0.9 (min), time to 90% reversal of the increase in coronary blood flow” value was found to be 21.4 ± 0.8 min.

As to `COc1ccc(-c2cnn(-c3nc(N)c4ncn(C5O[C@H](CO)[C@@H](O)[C@H]5O)c4n3)c2)cc1` (stereo partly drawn) [Compound 14, (4S,2R,3R,5R)-2-{6-Amino-2-[4-(4-metboxyphenyl)pyrazolyl]purin-9-yl}-5-(hydroxymethyl)oxolane-3,4-diol], the Ki at A2A receptor was in the range of 1000 to 10000 nM.

On to `Cc1ccc(-c2cnn(-c3nc(N)c4ncn(C5O[C@H](CO)[C@@H](O)[C@H]5O)c4n3)c2)cc1` (some centres unmarked) [Compound 15], for which, on A2A receptor, the Ki is 1000 to 10000 nM.

In the case of `Nc1nc(-n2cc(C(=O)NCc3ccc(Cl)cc3)cn2)nc2c1ncn2[C@@H]1O[C@H](CO)[C@@H](O)[C@H]1O` [Compound 22, (1-{9-[(4S,2R,3R,5R)-3,4-dihydroxy-5-(hydroxymethyl)oxolan-2-yl]-6-aminopurin-2yl}pyrazol-4yl)-N-[(4-chlorophenyl)methyl]carboxamide], the Ki on A2A receptor lay within 10 to 1000 nM.

On to `NC(=O)c1cnn(-c2nc(N)c3ncn([C@@H]4O[C@H](CO)[C@@H](O)[C@H]4O)c3n2)c1` [Compound 20, 1-{9-[(4S,2R,3R,5R)-3,4-dihydroxy-5-(hydroxymethyl)oxolan-2-yl]-6-aminopurin-2-yl}pyrazole-4-carboxamide], for which the Ki on A2A receptor was 10 to 1000 nM.

Turning to `CCCCC#Cc1nc(N)c2ncn([C@@H]3O[C@H](C(=O)NCC)[C@@H](O)[C@H]3O)c2n1` [HENECA, N-ethyl-1′-deoxy-1′-(6-amino-2-hexynyl-9H-purin9-yl)-beta-D-ribofuranuronamide], at A2A adenosine receptor, the “t 0.5 (min), time to 50% reversal of the increase in coronary conductance” value was 28.6 ± 1.1 min and the “t 0.9 (min), time to 90% reversal of the increase in coronary conductance” value was found to be 32.8 ± 3.1 min.
